Assay results from the kinase profiling compilation of Christmann-Franck et al. (2016).

Columns and labels:
Assay in all cases: radiometric filter-binding kinase assay, Kinase HotSpot
Conditions in all cases: compound 0.5 µM; ATP 10 µM
[1] = target: ABL2 (human) (UniProt P42684)
[2] = test system: ARAF (human), P10398 [Y301D/Y302D]
[3] = target: AURKB (human) (UniProt Q96GD4)
[4] = target: BRAF (human) (UniProt P15056)
[5] = target: CAMK2D (human) (UniProt Q13557)
[6] = target: CAMKK2 (human) (UniProt Q96RR4)
[7] = target: CDK1 CCNB1 (human) (UniProt P06493+P14635)
[8] = target: CHEK2 (human) (UniProt O96017)
Sequence of CHEK2 (human) (O96017 whole entry, looked up): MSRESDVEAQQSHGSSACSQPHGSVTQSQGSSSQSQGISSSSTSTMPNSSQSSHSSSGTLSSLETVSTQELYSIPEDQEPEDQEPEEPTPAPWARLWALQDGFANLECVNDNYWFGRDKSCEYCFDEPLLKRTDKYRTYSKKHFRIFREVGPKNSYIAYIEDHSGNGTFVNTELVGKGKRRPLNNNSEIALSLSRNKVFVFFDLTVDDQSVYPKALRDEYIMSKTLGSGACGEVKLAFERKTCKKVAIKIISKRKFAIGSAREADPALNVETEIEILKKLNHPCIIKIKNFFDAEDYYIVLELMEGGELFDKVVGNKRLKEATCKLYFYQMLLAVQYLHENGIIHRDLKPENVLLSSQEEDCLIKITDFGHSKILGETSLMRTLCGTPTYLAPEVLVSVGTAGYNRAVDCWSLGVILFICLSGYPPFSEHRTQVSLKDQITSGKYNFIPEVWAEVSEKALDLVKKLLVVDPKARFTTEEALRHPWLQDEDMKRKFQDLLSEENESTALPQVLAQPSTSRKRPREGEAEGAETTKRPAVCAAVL

[9] = target: CLK4 (human) (UniProt Q9HAZ1)
[10] = target: CSNK1G2 (human) (UniProt P78368)
[11] = target: CSNK2A2 (human) (UniProt P19784)
[12] = target: DAPK1 (human) (UniProt P53355)
[13] = target: EPHA1 (human) (UniProt P21709)
Sequence of EPHA1 (human) (P21709 whole entry, looked up): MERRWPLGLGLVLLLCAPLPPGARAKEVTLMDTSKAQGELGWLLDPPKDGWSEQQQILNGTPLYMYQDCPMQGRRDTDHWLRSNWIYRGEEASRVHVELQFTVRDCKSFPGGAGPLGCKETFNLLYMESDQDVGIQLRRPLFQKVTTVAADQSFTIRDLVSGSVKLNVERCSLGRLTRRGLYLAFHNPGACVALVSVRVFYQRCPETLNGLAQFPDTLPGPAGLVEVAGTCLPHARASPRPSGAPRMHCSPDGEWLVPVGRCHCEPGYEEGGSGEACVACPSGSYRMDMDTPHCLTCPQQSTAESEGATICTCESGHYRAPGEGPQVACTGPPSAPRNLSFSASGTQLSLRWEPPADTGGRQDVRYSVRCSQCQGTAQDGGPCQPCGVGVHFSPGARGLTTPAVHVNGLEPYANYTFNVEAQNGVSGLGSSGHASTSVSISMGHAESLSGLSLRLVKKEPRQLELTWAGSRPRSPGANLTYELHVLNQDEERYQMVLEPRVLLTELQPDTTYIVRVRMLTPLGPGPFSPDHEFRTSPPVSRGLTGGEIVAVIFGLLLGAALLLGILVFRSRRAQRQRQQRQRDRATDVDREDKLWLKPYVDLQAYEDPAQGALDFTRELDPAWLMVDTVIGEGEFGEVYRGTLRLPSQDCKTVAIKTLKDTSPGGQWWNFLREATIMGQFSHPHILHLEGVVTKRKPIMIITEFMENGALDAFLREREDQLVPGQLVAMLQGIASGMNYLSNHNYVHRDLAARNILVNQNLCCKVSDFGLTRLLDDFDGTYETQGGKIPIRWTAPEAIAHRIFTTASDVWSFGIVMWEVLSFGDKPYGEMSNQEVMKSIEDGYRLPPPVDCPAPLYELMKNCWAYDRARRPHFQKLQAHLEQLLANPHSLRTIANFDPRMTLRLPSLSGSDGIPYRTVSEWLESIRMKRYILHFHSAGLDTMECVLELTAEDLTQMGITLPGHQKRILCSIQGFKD

[14] = target: EPHA6 (human) (UniProt Q9UF33)
Sequence of EPHA6 (human) (Q9UF33 whole entry, looked up): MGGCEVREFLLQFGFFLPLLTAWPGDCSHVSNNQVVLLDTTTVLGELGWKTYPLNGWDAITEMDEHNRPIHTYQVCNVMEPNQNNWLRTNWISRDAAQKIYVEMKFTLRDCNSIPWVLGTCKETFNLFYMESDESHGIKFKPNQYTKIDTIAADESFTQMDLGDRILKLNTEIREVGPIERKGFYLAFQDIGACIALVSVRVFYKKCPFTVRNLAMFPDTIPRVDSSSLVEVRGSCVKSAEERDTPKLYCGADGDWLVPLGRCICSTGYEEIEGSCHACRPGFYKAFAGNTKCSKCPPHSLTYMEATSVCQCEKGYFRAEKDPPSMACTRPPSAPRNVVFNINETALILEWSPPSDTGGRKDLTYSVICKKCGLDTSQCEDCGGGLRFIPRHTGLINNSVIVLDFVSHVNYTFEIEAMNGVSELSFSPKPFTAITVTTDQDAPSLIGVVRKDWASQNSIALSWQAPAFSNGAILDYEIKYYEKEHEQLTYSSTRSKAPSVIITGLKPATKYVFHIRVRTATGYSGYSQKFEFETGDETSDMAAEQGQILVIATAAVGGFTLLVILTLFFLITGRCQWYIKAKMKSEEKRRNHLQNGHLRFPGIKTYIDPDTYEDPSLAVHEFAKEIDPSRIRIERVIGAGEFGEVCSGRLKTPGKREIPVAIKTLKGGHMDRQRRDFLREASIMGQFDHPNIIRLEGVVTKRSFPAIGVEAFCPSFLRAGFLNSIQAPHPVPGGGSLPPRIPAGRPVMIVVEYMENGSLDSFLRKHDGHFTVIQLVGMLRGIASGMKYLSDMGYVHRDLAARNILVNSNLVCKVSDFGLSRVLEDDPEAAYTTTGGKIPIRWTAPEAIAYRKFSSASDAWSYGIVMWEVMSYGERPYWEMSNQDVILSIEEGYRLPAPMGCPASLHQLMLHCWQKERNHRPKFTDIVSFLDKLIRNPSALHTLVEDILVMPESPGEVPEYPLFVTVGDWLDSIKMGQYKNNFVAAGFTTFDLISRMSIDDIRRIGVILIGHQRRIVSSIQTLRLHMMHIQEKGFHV

[15] = target: FER (human) (UniProt P16591)
Sequence of FER (human) (P16591 whole entry, looked up): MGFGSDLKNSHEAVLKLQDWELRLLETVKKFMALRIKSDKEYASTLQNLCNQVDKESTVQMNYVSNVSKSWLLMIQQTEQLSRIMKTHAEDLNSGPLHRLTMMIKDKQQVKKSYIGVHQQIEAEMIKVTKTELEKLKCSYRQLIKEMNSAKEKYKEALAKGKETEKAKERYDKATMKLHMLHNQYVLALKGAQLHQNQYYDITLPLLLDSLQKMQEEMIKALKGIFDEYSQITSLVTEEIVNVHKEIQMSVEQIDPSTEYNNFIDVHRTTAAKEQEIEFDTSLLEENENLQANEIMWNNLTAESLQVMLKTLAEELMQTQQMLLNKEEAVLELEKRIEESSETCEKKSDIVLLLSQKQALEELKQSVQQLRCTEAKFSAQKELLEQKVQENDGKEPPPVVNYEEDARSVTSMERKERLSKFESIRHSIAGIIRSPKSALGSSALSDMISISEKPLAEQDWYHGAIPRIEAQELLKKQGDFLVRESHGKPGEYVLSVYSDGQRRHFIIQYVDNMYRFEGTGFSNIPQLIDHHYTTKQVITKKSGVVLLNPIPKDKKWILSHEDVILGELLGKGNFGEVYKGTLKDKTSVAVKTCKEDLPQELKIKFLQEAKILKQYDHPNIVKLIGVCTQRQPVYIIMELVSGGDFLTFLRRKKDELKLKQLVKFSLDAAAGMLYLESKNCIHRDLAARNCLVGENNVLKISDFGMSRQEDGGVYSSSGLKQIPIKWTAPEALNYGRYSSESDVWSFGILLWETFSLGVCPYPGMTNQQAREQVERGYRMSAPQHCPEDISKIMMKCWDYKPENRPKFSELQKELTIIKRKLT

[16] = target: FGFR3 (human) (UniProt P22607)
[17] = target: HCK (human) (UniProt P08631)
[18] = target: HIPK1 (human) (UniProt Q86Z02)
[19] = target: IKBKE (human) (UniProt Q14164)
[20] = target: INSR (human) (UniProt P06213)
[21] = target: JAK3 JH1 JH2 (human) (UniProt P52333)
[22] = target: LIMK1 (human) (UniProt P53667)
[23] = target: MAPK12 (human) (UniProt P53778)
[24] = target: MAPK3 (human) (UniProt P27361)
[25] = target: MYO3B (human) (UniProt Q8WXR4)
[26] = target: NEK7 (human) (UniProt Q8TDX7)
[27] = target: PAK4 (human) (UniProt O96013)
[28] = target: PDGFRB (human) (UniProt P09619)
[29] = target: PDPK1 (human) (UniProt O15530)
[30] = target: PKN2 (human) (UniProt Q16513)
[31] = target: PRKACG (human) (UniProt P22612)
[32] = target: PRKCB1 (human) (UniProt P05771)
[33] = target: RPS6KA1 KD1 KD2 (human) (UniProt Q15418)
[34] = target: RPS6KB2 (human) (UniProt Q9UBS0)
[35] = target: STK38 (human) (UniProt Q15208)
[36] = target: TAOK1 (human) (UniProt Q7L7X3)
[37] = target: TLK2 (human) (UniProt Q86UE8)
[38] = target: TNK2 (human) (UniProt Q07912)
[39] = target: TSSK1B (human) (UniProt Q9BXA7)
[40] = target: TTK (human) (UniProt P33981)
[41] = target: ULK3 (human) (UniProt Q6PHR2)
Sequence of ULK3 (human) (Q6PHR2 whole entry, looked up): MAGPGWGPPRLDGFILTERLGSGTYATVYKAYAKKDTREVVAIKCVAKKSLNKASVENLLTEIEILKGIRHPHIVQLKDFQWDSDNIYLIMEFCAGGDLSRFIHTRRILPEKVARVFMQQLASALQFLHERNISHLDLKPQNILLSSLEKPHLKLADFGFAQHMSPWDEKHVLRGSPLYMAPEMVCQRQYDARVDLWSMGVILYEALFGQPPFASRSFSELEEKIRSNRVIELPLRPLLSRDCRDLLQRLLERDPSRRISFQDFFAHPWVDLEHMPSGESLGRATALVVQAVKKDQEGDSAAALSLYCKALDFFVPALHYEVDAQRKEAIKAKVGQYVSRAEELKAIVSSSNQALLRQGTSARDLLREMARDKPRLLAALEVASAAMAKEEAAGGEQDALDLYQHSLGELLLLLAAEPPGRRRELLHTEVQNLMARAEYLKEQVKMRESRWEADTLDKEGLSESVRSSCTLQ

[42] = target: EGFR (human) (UniProt P00533)

Sequence of ABL2 (human) (P42684 whole entry, looked up): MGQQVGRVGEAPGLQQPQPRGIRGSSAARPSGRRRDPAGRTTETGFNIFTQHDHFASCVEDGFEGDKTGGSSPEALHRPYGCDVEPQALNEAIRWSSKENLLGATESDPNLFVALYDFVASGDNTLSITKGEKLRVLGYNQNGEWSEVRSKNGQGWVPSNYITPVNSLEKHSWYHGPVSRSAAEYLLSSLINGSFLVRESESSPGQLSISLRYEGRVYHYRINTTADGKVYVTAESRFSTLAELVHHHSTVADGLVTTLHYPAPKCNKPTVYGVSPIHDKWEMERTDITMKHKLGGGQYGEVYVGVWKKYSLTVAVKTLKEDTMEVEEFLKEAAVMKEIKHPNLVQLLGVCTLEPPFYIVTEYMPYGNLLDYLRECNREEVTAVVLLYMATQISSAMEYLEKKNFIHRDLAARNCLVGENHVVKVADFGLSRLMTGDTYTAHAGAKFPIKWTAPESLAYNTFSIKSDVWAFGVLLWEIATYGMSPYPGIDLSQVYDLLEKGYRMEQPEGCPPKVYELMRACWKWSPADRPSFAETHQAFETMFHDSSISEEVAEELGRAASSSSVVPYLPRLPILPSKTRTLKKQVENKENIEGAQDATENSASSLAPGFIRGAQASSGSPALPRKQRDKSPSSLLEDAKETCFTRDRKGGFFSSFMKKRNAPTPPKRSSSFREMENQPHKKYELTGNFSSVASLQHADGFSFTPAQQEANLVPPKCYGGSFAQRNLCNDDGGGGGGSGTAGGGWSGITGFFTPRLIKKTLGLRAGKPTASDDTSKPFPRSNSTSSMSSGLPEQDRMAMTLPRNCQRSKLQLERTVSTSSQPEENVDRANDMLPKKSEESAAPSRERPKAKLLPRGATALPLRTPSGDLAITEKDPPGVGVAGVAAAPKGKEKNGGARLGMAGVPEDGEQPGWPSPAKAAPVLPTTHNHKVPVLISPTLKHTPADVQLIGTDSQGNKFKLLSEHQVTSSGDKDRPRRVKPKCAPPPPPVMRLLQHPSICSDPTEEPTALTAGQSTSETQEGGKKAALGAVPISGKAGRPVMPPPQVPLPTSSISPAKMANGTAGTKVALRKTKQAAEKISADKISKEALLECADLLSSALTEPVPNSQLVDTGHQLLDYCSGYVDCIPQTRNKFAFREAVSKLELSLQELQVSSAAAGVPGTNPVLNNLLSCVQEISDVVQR

Oc1ccc(-c2nc(-c3ccc(F)cc3)c(-c3ccncc3)[nH]2)cc1
residual activity [1]: 91.1% | residual activity [2]: 31.1% | residual activity [3]: 104% | residual activity [4]: 60.5% | residual activity [5]: 88.1% | residual activity [6]: 118% | residual activity [7]: 99% | residual activity [8]: 98.9% | residual activity [9]: 106% | residual activity [10]: 91.9% | residual activity [11]: 95.9% | residual activity [12]: 95% | residual activity [13]: 94.4% | residual activity [14]: 57.3% | residual activity [15]: 94.5% | residual activity [16]: 99.2% | residual activity [17]: 97.6% | residual activity [18]: 98.2% | residual activity [19]: 101% | residual activity [20]: 91.5% | residual activity [21]: 95.8% | residual activity [22]: 91.4% | residual activity [23]: 102% | residual activity [24]: 101% | residual activity [25]: 101% | residual activity [26]: 103% | residual activity [27]: 98.6% | residual activity [28]: 104% | residual activity [29]: 98.2% | residual activity [30]: 101% | residual activity [31]: 78.4% | residual activity [32]: 63.7% | residual activity [33]: 98.1% | residual activity [34]: 91.4% | residual activity [35]: 99.8% | residual activity [36]: 98.5% | residual activity [37]: 97.4% | residual activity [38]: 83.2% | residual activity [39]: 104% | residual activity [40]: 103% | residual activity [41]: 85.5%

NC(=O)c1ccc(N(C(N)=O)c2c(F)cccc2F)nc1-c1ccc(F)cc1F
residual activity [1]: 100% | residual activity [3]: 91.3% | residual activity [5]: 87.3% | residual activity [6]: 101% | residual activity [7]: 95.7% | residual activity [8]: 97.6% | residual activity [9]: 114% | residual activity [10]: 99.6% | residual activity [11]: 109% | residual activity [12]: 98.2% | residual activity [42]: 92.7% | residual activity [13]: 99.1% | residual activity [14]: 95% | residual activity [15]: 95.6% | residual activity [16]: 90.2% | residual activity [17]: 89.5% | residual activity [18]: 100% | residual activity [19]: 88% | residual activity [20]: 104% | residual activity [21]: 95.7% | residual activity [22]: 98.5% | residual activity [23]: 92.1% | residual activity [24]: 95.2% | residual activity [25]: 99.2% | residual activity [26]: 90.1% | residual activity [27]: 92.6% | residual activity [28]: 62.8% | residual activity [29]: 87.4% | residual activity [30]: 99.7% | residual activity [31]: 109% | residual activity [32]: 86.1% | residual activity [33]: 109% | residual activity [34]: 100% | residual activity [35]: 101% | residual activity [36]: 96.2% | residual activity [37]: 95.7% | residual activity [38]: 96.1% | residual activity [39]: 83% | residual activity [40]: 98.8% | residual activity [41]: 101%

CS(=O)c1ccc(-c2nc(-c3ccc(F)cc3)c(-c3ccncc3)[nH]2)cc1 (centres undefined)
residual activity [1]: 91.5% | residual activity [2]: 42.7% | residual activity [3]: 87.7% | residual activity [4]: 78.8% | residual activity [5]: 103% | residual activity [6]: 110% | residual activity [7]: 99.1% | residual activity [8]: 99.6% | residual activity [9]: 98.7% | residual activity [10]: 95.7% | residual activity [12]: 90.3% | residual activity [13]: 97% | residual activity [14]: 57.2% | residual activity [15]: 95% | residual activity [16]: 97% | residual activity [17]: 96.1% | residual activity [18]: 104% | residual activity [19]: 98% | residual activity [20]: 88.9% | residual activity [21]: 93.9% | residual activity [22]: 91.3% | residual activity [23]: 105% | residual activity [24]: 101% | residual activity [25]: 104% | residual activity [26]: 98.9% | residual activity [28]: 103% | residual activity [29]: 96.3% | residual activity [31]: 107% | residual activity [32]: 74% | residual activity [33]: 99.9% | residual activity [34]: 97.2% | residual activity [35]: 105% | residual activity [36]: 97.9% | residual activity [37]: 96.5% | residual activity [38]: 82.1% | residual activity [39]: 108% | residual activity [40]: 99.9% | residual activity [41]: 83.2%
